How the values were obtained:
[1] = tested on: rat femur fracture model; assay: Rat femur fracture model, fracture healing; type: in vivo
Source text: Certain embodiments of the methods disclosed herein also include the use of the microprojection arrays as described herein in their various embodiments to accelerate fracture healing in a patient who has suffered one or more fractures and for which the fractures are not completely healed. Healing of bone fractures (eg long bone fractures) involves endochondral and intramembranous bone formation, which together form a callus that achieves union, stabilization, and gradual recovery of bone strength. […] Sixteen rats from each group were necropsied after 4 and 6 weeks of healing, with 12 fractured femurs per group used for micro-CT and biomechanical testing and the other 4 femurs used for micro-CT and histology.

[2] = Subcutaneous 80 μg abaloparatide versus placebo: fractures, BMD, TBS; type: in vivo; conditions: subcutaneous administration
Procedure: In certain embodiments, the abaloparatide-SC treatment comprises subcutaneous administration of an aqueous formulation comprising abaloparatide (about 2 mg/mL) in an acetate buffer, with a pH of about 4.5 to about 5.6, or about 5.1. Optionally, the aqueous formulation further comprises phenol (about 5 mg/mL). In certain examples of these embodiments, the acetate buffer comprises tri-hydrate sodium acetate (about 5 mg/mL) with pH (e.g., about 4.5 to about 5.6, or about 5.1) adjusted with acetic acid. Unless specifically stated otherwise, comparative abaloparatide sc dose use an 80 μg dose delivered subcutaneously to the periumbilicular region of the abdomen of the patient.

[3] = tested on: ovariectomy-induced osteopenic rats and monkeys; conditions: cited from earlier work

## [Glu^22,25, Leu^23,28,31, Aib^29, Lys^26,30]hPTHrP(1-34)NH2 [abaloparatide]
[1]; 5 ug/kg/d, week 4, three-point bending
  callus stiffness, higher vs VEH: 60%
[1]; 5 ug/kg/d, week 6
  callus stiffness, higher vs VEH: 112%
[1]; 25 ug/kg/d, week 4
  callus peak load, higher vs VEH: 77%
[1]; 25 ug/kg/d, week 4, three-point bending
  callus stiffness, higher vs VEH: 96%
[1]; 5 and 25 ug/kg/d, week 4, vs VEH
  callus area (histomorphometry): significantly greater callus area
[1]; 5 and 25 ug/kg/d, weeks 4 and 6, vs VEH
  callus bone volume, bone volume fraction, and BMC (micro-CT): significantly greater
[1]; 5 or 25 ug/kg/d sc daily, week 4, vs VEH
  cortical bridging across the fracture gap (semi-quantitative histologic scoring): significantly greater bridging
[1]; both abaloparatide groups, week 6
  callus peak load vs VEH: numerically higher
[2]
  BMD and/or TBS at the lumbar spine, total hip, and femoral neck: improve
[3]
  bone loss: complete reversal of bone loss
